For one experiment, the target named is Wee1-like protein kinase (Homo sapiens, UniProt P30291). Briefly: Dose Response Cell-based Assay for Inhibitors of Wee1 Degradation. [Related pubchem assays: 1410, 1321 ]. Format: functional.
The nature of experiment [1]: Luminescence-based dose response cell-based high throughput screening assay for cytotoxic compounds using the IEC-6 intestinal epithelial cell line. [Related pubchem assays: 1858 (Summary AID.), 1825 (Counterscreen.), 1907 (Confirmation screen.)]. The class given is functional.
Experiment [2] has as its target T1, Sphingosine 1-phosphate receptor 4 (Homo sapiens, UniProt O95977).
T1 sequence (O95977 whole entry): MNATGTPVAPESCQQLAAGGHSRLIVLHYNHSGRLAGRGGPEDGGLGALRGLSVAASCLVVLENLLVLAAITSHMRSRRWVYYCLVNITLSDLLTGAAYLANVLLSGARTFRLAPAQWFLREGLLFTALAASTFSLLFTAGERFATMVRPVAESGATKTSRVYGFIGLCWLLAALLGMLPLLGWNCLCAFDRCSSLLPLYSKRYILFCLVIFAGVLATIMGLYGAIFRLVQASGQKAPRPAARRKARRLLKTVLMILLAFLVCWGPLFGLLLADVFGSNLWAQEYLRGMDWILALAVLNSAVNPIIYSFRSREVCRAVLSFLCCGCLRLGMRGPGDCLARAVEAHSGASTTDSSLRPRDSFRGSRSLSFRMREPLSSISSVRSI
Briefly: Fluorescence dose response cell-based high throughput screening assay for antagonists of the Sphingosine 1-Phosphate Receptor 4 (S1P4). [Related pubchem assays: 1524 (Confirmation in triplicates.), 1510 (Primary screen.)]. Format: functional.

Experiment [3] can be described thus: NIH-3T3 fibroblast cytotoxicity, dose response, cytotoxicity control, cell-based, fluorescence, Alamar Blue, secondary assay (AID 2327).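 Note: NIH-3T3 mouse fibroblasts cultured with fluconazole at 8 µg/mL.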 Format: functional.
The nature of experiment [4]: Trypanosoma cruzi growth suppression in host cells – NIH3T3 host cells, beta-gal luminescence, confirmation (AID 2044).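 Note: intracellular parasites grown in NIH/3T3 mouse fibroblasts as host cells; luminescent beta-galactosidase reporter signal from transgenic T. cruzi replicating inside host cells; inhibitors lower the luminescence signal.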 Format: functional, cell-based.
In a further experiment the target is Beta-galactosidase (Escherichia coli, UniProt Q8VNN2). Briefly: PubChem AID 485352. The class given is functional.
Sequence of Beta-galactosidase (Q8VNN2 whole entry): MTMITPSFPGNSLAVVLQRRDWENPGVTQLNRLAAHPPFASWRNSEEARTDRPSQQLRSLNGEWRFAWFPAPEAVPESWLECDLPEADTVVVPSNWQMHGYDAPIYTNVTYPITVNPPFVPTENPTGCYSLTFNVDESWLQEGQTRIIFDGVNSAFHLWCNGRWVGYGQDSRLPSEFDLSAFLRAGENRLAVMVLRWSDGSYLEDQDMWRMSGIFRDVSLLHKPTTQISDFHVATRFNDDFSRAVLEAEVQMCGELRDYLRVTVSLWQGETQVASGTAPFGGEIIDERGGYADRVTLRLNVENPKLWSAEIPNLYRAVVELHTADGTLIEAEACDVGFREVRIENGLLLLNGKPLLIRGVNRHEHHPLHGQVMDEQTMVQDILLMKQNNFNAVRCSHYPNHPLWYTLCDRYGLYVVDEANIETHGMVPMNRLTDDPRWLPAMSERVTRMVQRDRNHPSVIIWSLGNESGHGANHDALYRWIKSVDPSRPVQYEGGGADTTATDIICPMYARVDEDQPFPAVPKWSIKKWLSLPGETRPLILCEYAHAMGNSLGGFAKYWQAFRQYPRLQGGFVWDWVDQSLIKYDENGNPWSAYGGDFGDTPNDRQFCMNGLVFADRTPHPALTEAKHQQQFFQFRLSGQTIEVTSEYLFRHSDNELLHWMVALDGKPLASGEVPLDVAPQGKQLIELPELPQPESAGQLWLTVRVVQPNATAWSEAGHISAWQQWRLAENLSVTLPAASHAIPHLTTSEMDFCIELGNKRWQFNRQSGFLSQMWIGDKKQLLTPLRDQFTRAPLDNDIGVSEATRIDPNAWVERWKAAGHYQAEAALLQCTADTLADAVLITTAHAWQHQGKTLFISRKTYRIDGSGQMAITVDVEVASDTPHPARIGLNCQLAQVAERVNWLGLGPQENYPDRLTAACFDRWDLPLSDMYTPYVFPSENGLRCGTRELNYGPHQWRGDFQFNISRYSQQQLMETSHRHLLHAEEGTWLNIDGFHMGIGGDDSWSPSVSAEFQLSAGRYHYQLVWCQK
The target in experiment [5] is Alkaline phosphatase, placental type (Homo sapiens, UniProt P05187). Briefly: human placental alkaline phosphatase inhibition – biochemical, luminescence, confirmation (AID 1512). The class given is functional.
Another experiment has as its target LIM domain kinase 1 (Homo sapiens, UniProt P53667). Briefly: Navigating the Kinome. Panel member name: LIMK1. The class given is functional.
For experiment [6], the target named is MAP kinase-activated protein kinase 5 (Homo sapiens, UniProt Q8IW41). Format: functional.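 Note: measured as one member of a kinome panel.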
Another experiment addresses Ephrin type-A receptor 2 (Homo sapiens, UniProt P29317). The class given is functional.
Experiment [7] addresses Serine/threonine-protein kinase pim-1 (Homo sapiens, UniProt P11309). The class given is functional.
For experiment [8], the target named is Tyrosine-protein kinase receptor UFO (Homo sapiens, UniProt P30530). The class given is functional.
Sequence of Tyrosine-protein kinase receptor UFO (P30530 whole entry): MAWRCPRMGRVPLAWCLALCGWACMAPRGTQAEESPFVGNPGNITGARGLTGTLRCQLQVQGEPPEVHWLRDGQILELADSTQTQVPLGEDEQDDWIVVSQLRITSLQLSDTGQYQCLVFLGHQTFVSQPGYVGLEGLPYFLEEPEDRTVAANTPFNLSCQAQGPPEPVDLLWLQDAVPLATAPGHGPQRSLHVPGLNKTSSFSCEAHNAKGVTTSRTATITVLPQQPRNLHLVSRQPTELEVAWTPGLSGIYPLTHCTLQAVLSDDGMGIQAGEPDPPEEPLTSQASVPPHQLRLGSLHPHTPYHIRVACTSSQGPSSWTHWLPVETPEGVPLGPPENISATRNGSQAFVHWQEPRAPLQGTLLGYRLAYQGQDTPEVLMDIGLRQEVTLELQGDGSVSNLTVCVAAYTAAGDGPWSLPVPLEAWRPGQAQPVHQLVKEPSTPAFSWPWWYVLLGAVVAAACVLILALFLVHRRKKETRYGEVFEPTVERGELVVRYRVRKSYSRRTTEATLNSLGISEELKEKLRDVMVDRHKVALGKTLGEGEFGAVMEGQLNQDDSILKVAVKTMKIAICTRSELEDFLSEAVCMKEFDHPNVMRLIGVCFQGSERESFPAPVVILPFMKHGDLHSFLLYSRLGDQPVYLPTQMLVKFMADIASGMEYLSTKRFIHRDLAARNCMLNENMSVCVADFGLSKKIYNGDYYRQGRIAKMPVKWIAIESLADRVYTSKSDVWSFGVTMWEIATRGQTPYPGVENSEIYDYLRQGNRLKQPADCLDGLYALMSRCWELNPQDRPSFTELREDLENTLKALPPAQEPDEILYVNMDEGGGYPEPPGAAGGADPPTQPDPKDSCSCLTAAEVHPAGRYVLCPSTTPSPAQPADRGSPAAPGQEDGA
The target of experiment [9] is Death-associated protein kinase 3 (Homo sapiens, UniProt O43293). Format: functional.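 Note: measured as one member of a kinome-wide profiling panel.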
Experiment [10] concerns the target Cyclin-dependent kinase 2 (Homo sapiens, UniProt P24941). Format: functional.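 Note: CDK2 measured as one member of a broad kinome profiling panel.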
The target in experiment [11] is Serine/threonine-protein kinase PAK 4 (Homo sapiens, UniProt O96013). Format: functional.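 Note: value obtained within a kinome profiling panel in which PAK4 was one of the panel members.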
Sequence of Serine/threonine-protein kinase PAK 4 (O96013 whole entry): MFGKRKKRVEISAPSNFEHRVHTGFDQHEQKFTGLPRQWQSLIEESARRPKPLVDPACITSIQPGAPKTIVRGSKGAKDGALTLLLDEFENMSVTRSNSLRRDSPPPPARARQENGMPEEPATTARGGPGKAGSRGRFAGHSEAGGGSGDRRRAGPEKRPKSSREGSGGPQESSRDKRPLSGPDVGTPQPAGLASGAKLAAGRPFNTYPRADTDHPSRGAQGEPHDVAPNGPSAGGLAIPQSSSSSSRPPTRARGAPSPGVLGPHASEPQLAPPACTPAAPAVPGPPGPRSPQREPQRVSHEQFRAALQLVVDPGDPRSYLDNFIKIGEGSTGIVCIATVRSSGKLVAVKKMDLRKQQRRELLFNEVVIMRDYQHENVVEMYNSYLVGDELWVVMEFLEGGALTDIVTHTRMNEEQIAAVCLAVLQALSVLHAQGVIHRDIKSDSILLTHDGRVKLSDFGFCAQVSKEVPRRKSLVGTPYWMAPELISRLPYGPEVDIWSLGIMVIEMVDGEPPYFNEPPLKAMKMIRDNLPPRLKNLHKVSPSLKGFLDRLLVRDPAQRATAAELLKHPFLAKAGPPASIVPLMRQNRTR
The target in experiment [12] is RAC-alpha serine/threonine-protein kinase (Homo sapiens, UniProt P31749). The class given is functional.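 Note: AKT1 affinity measured as one member of a kinome-wide kinase profiling panel.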
Sequence of RAC-alpha serine/threonine-protein kinase (P31749 whole entry): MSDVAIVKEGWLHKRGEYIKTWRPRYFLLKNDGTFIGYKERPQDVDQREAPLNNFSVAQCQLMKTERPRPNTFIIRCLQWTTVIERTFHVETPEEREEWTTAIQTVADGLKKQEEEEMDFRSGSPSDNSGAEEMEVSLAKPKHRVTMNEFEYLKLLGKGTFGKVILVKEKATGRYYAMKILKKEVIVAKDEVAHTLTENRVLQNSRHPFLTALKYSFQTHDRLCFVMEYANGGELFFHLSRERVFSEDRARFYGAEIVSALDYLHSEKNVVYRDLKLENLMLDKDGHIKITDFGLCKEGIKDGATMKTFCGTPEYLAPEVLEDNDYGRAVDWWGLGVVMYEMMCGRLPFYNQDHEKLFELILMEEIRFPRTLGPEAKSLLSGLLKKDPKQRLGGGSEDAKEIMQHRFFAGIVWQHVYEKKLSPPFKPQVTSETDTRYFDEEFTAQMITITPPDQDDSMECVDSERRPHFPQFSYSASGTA
The target of experiment [13] is Mitogen-activated protein kinase kinase kinase kinase 2 (Homo sapiens, UniProt Q12851). The class given is functional.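 Note: measured as one member of a kinome-wide kinase panel, with MAP4K2 as the panel entry.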
Experiment [14] is described as follows: toxicity toward HepG2 liver cells – cell-based, plate reader, cherry-pick, antagonist series, cytotoxicity control, dose response (AID 743416). The class given is functional.
Experiment [15] deals with T2, Mitochondrial peptide methionine sulfoxide reductase (Bos taurus, UniProt P54149).
T2 sequence (P54149 whole entry): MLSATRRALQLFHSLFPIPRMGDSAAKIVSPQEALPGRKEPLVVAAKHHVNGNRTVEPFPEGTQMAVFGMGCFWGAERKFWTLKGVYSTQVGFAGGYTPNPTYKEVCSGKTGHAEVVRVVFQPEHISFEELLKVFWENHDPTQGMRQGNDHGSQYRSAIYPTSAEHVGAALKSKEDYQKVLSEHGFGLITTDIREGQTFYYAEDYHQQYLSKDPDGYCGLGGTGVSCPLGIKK
Briefly: Absorbance-based biochemical high throughput dose response assay for activators of Methionine sulfoxide reductase A (MsrA). The class given is functional.

Experiment [16] deals with HEK293. Briefly: NOD2 signaling inhibitors in MDP-stimulated cells, cell-based, uHTS, luminescence (AID 2001). Format: functional. The note with it: Homo sapiens.
Experiment [17] concerns HEK293. Briefly: cells. Format: functional, cell-based. As to conditions: Homo sapiens.
The target of experiment [18] is T3, Rac GTPase-activating protein 1 (Homo sapiens, UniProt Q9H0H5).
T3 sequence (Q9H0H5 whole entry): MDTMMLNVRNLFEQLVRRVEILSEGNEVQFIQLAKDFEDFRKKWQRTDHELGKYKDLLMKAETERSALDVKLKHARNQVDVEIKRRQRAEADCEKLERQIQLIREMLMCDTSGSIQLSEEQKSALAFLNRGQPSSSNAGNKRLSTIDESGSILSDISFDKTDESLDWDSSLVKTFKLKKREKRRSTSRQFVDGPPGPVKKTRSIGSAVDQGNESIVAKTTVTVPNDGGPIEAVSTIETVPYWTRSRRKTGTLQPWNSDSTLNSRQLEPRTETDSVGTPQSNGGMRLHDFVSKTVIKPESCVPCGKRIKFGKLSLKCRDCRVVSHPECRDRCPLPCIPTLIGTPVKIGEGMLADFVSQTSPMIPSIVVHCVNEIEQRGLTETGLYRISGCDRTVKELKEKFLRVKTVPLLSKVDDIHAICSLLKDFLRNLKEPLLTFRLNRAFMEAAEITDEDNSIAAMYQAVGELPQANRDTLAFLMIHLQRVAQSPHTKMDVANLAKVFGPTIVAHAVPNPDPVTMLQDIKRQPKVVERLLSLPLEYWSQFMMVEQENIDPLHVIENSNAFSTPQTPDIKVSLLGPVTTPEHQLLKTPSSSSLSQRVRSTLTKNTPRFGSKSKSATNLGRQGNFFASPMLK
Briefly: blockers of MgcRacGAP-driven Rac1 GTP hydrolysis – biochemical, ADP Hunter fluorescence, primary and confirmatory, confirmation (AID 624330). Format: functional.

Activity calls are given as the source filed them. Bounds are passed on as bounds.

The text below walks through data of ChEMBL document CHEMBL1201862, “PubChem BioAssay data set” (2004).

Sequence of LIM domain kinase 1 (P53667 whole entry, the tested form may be a part): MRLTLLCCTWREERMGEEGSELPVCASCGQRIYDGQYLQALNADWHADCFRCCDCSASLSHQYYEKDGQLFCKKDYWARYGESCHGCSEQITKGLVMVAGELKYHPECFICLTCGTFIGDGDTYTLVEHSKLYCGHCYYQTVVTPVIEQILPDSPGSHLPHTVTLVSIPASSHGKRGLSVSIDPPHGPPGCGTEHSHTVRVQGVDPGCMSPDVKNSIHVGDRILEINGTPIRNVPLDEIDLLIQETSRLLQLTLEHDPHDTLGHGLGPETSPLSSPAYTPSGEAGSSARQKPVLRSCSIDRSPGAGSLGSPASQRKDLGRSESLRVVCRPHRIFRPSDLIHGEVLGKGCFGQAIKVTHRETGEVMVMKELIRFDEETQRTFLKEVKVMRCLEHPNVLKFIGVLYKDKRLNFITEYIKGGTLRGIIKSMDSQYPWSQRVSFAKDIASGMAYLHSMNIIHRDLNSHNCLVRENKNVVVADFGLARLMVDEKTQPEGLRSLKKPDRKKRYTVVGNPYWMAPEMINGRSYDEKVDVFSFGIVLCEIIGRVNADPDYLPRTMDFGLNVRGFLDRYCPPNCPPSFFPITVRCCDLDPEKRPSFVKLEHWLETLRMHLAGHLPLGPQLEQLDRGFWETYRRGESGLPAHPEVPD
Sequence of Ephrin type-A receptor 2 (P29317 whole entry): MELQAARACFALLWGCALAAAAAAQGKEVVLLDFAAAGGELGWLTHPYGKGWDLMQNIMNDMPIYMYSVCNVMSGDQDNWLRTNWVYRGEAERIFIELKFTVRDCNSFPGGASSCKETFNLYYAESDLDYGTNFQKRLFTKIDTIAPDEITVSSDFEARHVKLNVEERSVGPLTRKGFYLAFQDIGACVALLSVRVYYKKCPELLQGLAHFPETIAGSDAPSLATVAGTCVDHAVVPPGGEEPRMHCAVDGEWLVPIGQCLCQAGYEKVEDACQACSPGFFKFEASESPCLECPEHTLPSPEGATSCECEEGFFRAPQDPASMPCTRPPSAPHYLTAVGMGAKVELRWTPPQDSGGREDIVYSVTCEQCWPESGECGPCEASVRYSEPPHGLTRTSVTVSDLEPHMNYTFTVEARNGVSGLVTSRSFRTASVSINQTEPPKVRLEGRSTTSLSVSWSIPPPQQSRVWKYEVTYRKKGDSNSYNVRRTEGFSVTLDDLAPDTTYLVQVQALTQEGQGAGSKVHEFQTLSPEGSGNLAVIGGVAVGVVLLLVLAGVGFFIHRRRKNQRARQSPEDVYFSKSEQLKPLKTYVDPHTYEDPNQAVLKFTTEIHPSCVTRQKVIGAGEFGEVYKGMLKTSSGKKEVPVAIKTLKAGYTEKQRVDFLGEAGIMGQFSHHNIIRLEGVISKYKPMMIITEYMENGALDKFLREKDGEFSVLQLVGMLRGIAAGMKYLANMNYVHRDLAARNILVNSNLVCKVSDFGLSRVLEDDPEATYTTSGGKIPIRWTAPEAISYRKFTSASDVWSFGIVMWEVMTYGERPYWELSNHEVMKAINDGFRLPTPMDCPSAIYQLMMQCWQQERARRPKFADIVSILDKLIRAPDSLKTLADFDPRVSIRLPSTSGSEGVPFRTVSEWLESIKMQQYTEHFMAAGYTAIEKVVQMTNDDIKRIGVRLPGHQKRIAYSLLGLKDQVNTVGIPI
Sequence of Serine/threonine-protein kinase pim-1 (P11309 whole entry): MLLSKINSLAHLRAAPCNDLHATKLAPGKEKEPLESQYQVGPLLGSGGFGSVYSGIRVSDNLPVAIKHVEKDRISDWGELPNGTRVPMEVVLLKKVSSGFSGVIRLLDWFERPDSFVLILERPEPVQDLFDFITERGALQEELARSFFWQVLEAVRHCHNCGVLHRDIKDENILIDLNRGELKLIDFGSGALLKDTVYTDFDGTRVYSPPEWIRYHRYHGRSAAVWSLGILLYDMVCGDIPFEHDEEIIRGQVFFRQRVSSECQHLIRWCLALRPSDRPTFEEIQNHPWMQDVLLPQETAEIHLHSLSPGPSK

As to `Cc1ccc(Nc2cc(C)nn2-c2nc(C)cc(O)n2)cc1`, the concentration giving a half-maximal response (EC50) on Wee1-like protein kinase is > 1.84 µM (active); in experiment [3], 1.76 µM (inconclusive); in experiment [4], < 0.1 µM (active); at Beta-galactosidase, > 40 µM (inactive). In addition, the half-maximal inhibitory concentration (IC50) in experiment [1] is 0.546 µM (active); in [2] it was 0.17 µM (active); in experiment [5], > 100 µM (inactive).

With `O=C1NC(=S)SC1=C1C(=O)Nc2ccc(Br)cc21`, the Ki at LIM domain kinase 1 is 3.98 µM (active); in experiment [6] it was > 1.58 µM (inactive); on Ephrin type-A receptor 2 it was > 3.16 µM (inactive); in [7] it was 0.0631 µM (active); in experiment [8], > 2 µM (inactive); in experiment [9] it was 0.2 µM (active). Moreover, the Ki in experiment [10] was > 7.94 µM (inactive); in [11], > 5.01 µM (inactive); in [12], > 7.94 µM (inactive); in experiment [13], > 6.31 µM (inactive).

As for `Cc1cnc(NC(=O)c2sc3ccccc3c2Cl)s1`, the AC50 in [14] was > 52 µM (inactive).

Regarding `O=C1C(O)=C/C(=N\c2ccccc2O)c2ccccc21`, the EC50 in experiment [15] was > 104 µM (inactive). Further, the IC50 in the experiment with HEK293 [16] and in the experiment on HEK293 [17] was > 20 µM (inactive) throughout.

With `O=C1C(Cl)=C(NCc2cccnc2)C(=O)c2ccccc21`, in experiment [15], the EC50 was > 104 µM (inactive).

As for `CN(C)c1ncc(C2=C(Cl)C(=O)C(N3CCCC3)=C(Cl)C2=O)s1`, in [18], the IC50 is 89.5 µM (active).
